± gives the expanded uncertainty stated by the source.
How the values were obtained:
[1] = molar heat capacity at constant pressure; settings: 100 kPa, Liquid, isoperibol calorimetry
[2] = excess molar enthalpy (molar enthalpy of mixing); xn = mol fraction of the nth substance listed; settings: 313.15 K, 100 kPa, Liquid, Power-compensation calorimetry

CCOP(=O)([O-])OCC.CCn1cc[n+](C)c1 [1-ethyl-3-methylimidazolium diethyl phosphate]
molar heat capacity at constant pressure ([1]; 303.15 K): 504.73 ± 32 J/K/mol
molar heat capacity at constant pressure ([1]; 313.15 K): 507.38 ± 32 J/K/mol
molar heat capacity at constant pressure ([1]; 323.15 K): 510.02 ± 32 J/K/mol
molar heat capacity at constant pressure ([1]; 333.15 K): 515.3 ± 32 J/K/mol
molar heat capacity at constant pressure ([1]; 343.15 K): 523.23 ± 32 J/K/mol
molar heat capacity at constant pressure ([1]; 353.15 K): 528.52 ± 32 J/K/mol
molar heat capacity at constant pressure ([1]; 363.15 K): 536.44 ± 32 J/K/mol
molar heat capacity at constant pressure ([1]; 373.15 K): 541.73 ± 32 J/K/mol

CCOP(=O)([O-])OCC.CCn1cc[n+](C)c1 [1-ethyl-3-methylimidazolium diethyl phosphate] + O
excess molar enthalpy ([2]; x1 = 0.017): -0.112 ± 0.00454 kcal/mol
excess molar enthalpy ([2]; x1 = 0.019): -0.13 ± 0.00526 kcal/mol
excess molar enthalpy ([2]; x1 = 0.023): -0.154 ± 0.00621 kcal/mol
excess molar enthalpy ([2]; x1 = 0.027): -0.181 ± 0.00741 kcal/mol
excess molar enthalpy ([2]; x1 = 0.25): -1.19 ± 0.0478 kcal/mol
excess molar enthalpy ([2]; x1 = 0.5): -1.26 ± 0.0502 kcal/mol
